Data on 2 molecules can be found in patent publication US20240399360A1, “DEVICES AND METHODS FOR CREATING TRANSCELLULAR PORES” (Georgia Tech Research Corporation, priority 2023, published 2024).

“Also recorded” adds a separate entry of the source.

What all share (format): cell-based, human
Assay [1] relates to phSC cells. Briefly: Particle-induced transcellular pore formation, fluorescent pore-label assay, cells seeded above microparticles. The procedure: Substrate preparation and cell culture for transcellular pore formation using microparticles: Round cover glasses (12 mm in diameter) were employed for SEM imaging, while 16-well chambered cover glasses (16 wells per cover glass; Invitrogen C37000) were utilized for other experiments. Glass substrates underwent plasma treatment (Harrick Plasma, PDC-32G) for 2 minutes at high RF power and were immediately incubated at 37° C. with 0.5 mg/mL biotinylated gelatin for 24 hours. After three washes with PBS, the cover glasses were incubated with microbial transglutaminase (0.001 unit/mL in 20 mM Tris-HCl and 150 mM NaCl, pH 8; Sigma-Aldrich SAE0159) at 37° C. for 24 hours to crosslink the gelatin coating and enhance phSC cell attachment on the substrate. Following three additional washes with PBS, the cover glasses were UV sterilized in a biosafety cabinet for 1 hour. Carboxyl ferromagnetic particles (4.0-4.9 μm, Spherotech, Inc. CFM-40-10) were vortexed and added to the substrate. The particles were allowed to randomly sink onto the substrate to achieve an approximate density of 1 particle per 1000 μm^2. Non-adherent particles were removed by washing three times with PBS, followed by seeding phSC cells (passage 4-6; 7.5 k cells/cm^2). The cells were then cultured for 2 to 7 hours in DMEM supplemented with 1% FBS and 1×PSG at 37° C. with 5% CO2. The culture time was chosen as the minimum duration necessary for the cells to adopt a spread configuration similar to that observed in situ. Note that this culture time (2 to 7 hours) varied for the tested cell strains. Alternatively, in some experiments, apical-to-basal cell stretching was achieved by adding particles above fully spread cells. High-content screening of transcellular pores: Upon achieving full cell spreading over particles, cells were incubated with the first pore label for 5 minutes, followed by three washes with cell media. Subsequently, cells were either exposed to a magnetic field (as detailed below) or incubated solely with cell media for 10 minutes. Afterward, the cells were incubated with the second pore label (5 μg/mL; Streptavidin, Alexa Fluor 647 Conjugate, Invitrogen S32357) for 5 minutes, all at 37° C. The cells were then immediately washed three times with PBS, fixed with 4% formaldehyde for 15 minutes at room temperature, washed three times with PBS, permeabilized with 0.1% Triton X for 15 minutes, and stained with NucBlue Fixed Cell Ready Probes Reagent (6 drops/mL; Invitrogen R37606) and Alexa Fluor 555 Phalloidin (0.165 μM; Invitrogen R34055) for 1 hour at room temperature. Following these steps, cells were washed three times with PBS, the cover glass was detached from the rest of the 16-well chambered system, mounted on another cover glass using Prolong Gold Antifade Mountant (Invitrogen P10144), and stored in the dark until examination with a Leica DM6 B upright microscope system. Fluorescent and brightfield images were acquired using a 10× objective to generate tile scans for each well. To exclude cells near the well edges, a 4 mm diameter circle was delineated at the center of each image, and the analysis was restricted to the cells within this 4 mm circle. The number of cells, particles beneath cells, and pores were manually counted. Pores incidence rate was quantified as the number of pores associated with particles divided by the number of particles, multiplied by 100. […]

In assay [2] the test system is phSC cells. Briefly: Transcellular pore detection with particles placed on top of cells (apical-to-basal deformation). The settings on record: 10 μM, instead of magnetic field, FIGS. 14A-14B. How it is done:
Substrate preparation and cell culture for transcellular pore formation using microparticles: Round cover glasses (12 mm in diameter) were employed for SEM imaging, while 16-well chambered cover glasses (16 wells per cover glass; Invitrogen C37000) were utilized for other experiments. Glass substrates underwent plasma treatment (Harrick Plasma, PDC-32G) for 2 minutes at high RF power and were immediately incubated at 37° C. with 0.5 mg/mL biotinylated gelatin for 24 hours. After three washes with PBS, the cover glasses were incubated with microbial transglutaminase (0.001 unit/mL in 20 mM Tris-HCl and 150 mM NaCl, pH 8; Sigma-Aldrich SAE0159) at 37° C. for 24 hours to crosslink the gelatin coating and enhance phSC cell attachment on the substrate. […]
High-content screening of transcellular pores: Upon achieving full cell spreading over particles, cells were incubated with the first pore label for 5 minutes, followed by three washes with cell media. […] The cells were then immediately washed three times with PBS, fixed with 4% formaldehyde for 15 minutes at room temperature, washed three times with PBS, permeabilized with 0.1% Triton X for 15 minutes, and stained with NucBlue Fixed Cell Ready Probes Reagent (6 drops/mL; Invitrogen R37606) and Alexa Fluor 555 Phalloidin (0.165 μM; Invitrogen R34055) for 1 hour at room temperature. […]

The test system of assay [3] is phSC cells. Description: Cell stiffness measurement by atomic force microscopy (AFM). The procedure:
Cell stiffness measurement: SC cells were seeded on coverslips and grown to confluence. An MFD-3D AFM (Asylum Research, Santa Barbara, CA, USA) was used to make stiffness measurements using silicon nitride cantilevers with an attached borosilicate sphere (diameter=10 μm; nominal spring constant=0.1 N/m; Novascan Technologies, Inc., Ames, IA, USA). […] The indentation depth was limited to 400 nm to avoid substrate effects and the tip velocity was adjusted to 800 nm/s to avoid viscous effects^37. 5 measurements/cell were conducted, and at least 5 cells were measured/cell strain. Data from AFM measurements were fitted to the Hertz model to calculate the Young's Modulus of the cells.

In assay [4] the test system is phSC cells. Briefly: Cell area after treatment (fluorescent images of actin network and nuclei). As to conditions: Y-27632 treatments; nSC74, nSC75, nSC82, nSC89; 2-way ANOVA; FIGS. 12A-12B. The procedure: Treatment with Y-27632 ROCK inhibitor: Cells were seeded above microparticles in 16-well chambered slides in DMEM supplemented with 10% FBS, 1×PSG and allowed to spread for 3.5 hours at 37° C. with 5% CO2. Subsequently, the cells were incubated with 10 μM Y-27632 (Sigma, Y0503) in DMEM supplemented with 1% FBS, 1×PSG for 30 minutes, followed by the first pore label for 5 minutes. Following incubation, the cells were washed, fixed, stained for nuclei and actin filaments, and imaged as described in the section titled “High-content screening of transcellular pores.”

[5] abbreviates: primary human SC cells, summary statement without cell strain.

Regarding `C[C@@H](N)[C@H]1CC[C@H](C(=O)Nc2ccncc2)CC1` [Y-27632], the particle-induced pore formation result in the assay on phSC cells [1] (Y-27632 treatment, four normal cell strains nSC74, nSC75, nSC82, nSC89, FIG. 6D) was “increased pore formation in a dose-dependent manner”. Besides, the pore formation result in the assay on phSC cells [1] (setting [5]) was “increased pore formation”. Moreover, the “transcellular pores at particle locations” value in the assay on phSC cells [2] is recorded as “did not induce transcellular pores; also recorded: failed to induce transcellular pores”. In addition, the cell stiffness result with phSC cells [3] (Y-27632 treatment, four normal cell strains nSC74, nSC75, nSC82, nSC89, FIG. 6C) is listed as “decreased cell stiffness”. Also, the cell area entry in the assay on phSC cells [4] is “did not significantly affect; also recorded: no significant effect”.

As to `CCCCCCCCCCCCC/C=C/[C@@H](O)[C@@H](N)COP(=O)(O)O` [SIP, sphingosine-1-phosphate], the pore formation entry in the assay with phSC cells [1] (SIP treatment, nSC74, FIG. 13B) is recorded as “did not have a significant effect; also recorded: did not affect”; with phSC cells [1] (SIP treatment, nSC75 and nSC89, FIG. 13B), “decreased pore formation; also recorded: decrease”; in the assay with phSC cells [1] (setting [5]), “decreased pore formation”. Moreover, the cell stiffness result in the assay with phSC cells [3] (SIP treatment, nSC74, FIG. 13A) is given as “did not have a significant effect; also recorded: did not affect”; in the assay with phSC cells [3] (SIP treatment, nSC75 and nSC89, FIG. 13A), “increased cell stiffness; also recorded: significant increase”.
